# Experiments:
# Assay in all cases: standard MIC test
# Format in all cases: cell-based
# [1] = test system: Bacillus subtilis A
# Excerpt: (§1) In a standard MIC test the compound of Examples 1 and 2 afforded the following data (µg/ml).
# [2] = test system: Citrobacter freundii E8
# Excerpt: as §1
# [3] = test system: Escherichia coli JT410
# Excerpt: as §1
# [4] = test system: Pseudomonas Dalgleish
# Excerpt: as §1
# [5] = test system: Staphylococcus aureus 1517
# Excerpt: as §1
# [6] = test system: Escherichia coli ESS
# Excerpt: as §1
# [7] = test system: Staphylococcus aureus Oxford
# Excerpt: as §1
# [8] = test system: Proteus morganii 1580; settings: Morganella morganii
# Excerpt: as §1
# [9] = test system: Escherichia coli JT39 [E96]
# Excerpt: as §1
# [10] = test system: Escherichia coli JT20
# Excerpt: as §1
# [11] = test system: Staphylococcus aureus Russell MB9
# Excerpt: as §1
# [12] = test system: Proteus vulgaris W091
# Excerpt: as §1
# [13] = test system: Shigella sonnei MB11967
# Excerpt: as §1
# [14] = test system: Proteus mirabilis 977 [13]
# Excerpt: as §1
# [15] = test system: Proteus rettgeri WM16; settings: Providencia rettgeri
# Excerpt: as §1
# [16] = test system: Enterobacter cloacae N1 [T753]
# Excerpt: as §1
# [17] = test system: Pseudomonas aeruginosa A [11]
# Excerpt: as §1
# [18] = test system: Klebsiella aerogenes A [T767]
# Excerpt: as §1
# [19] = test system: Salmonella typhimurium CT10; settings: Salmonella enterica
# Excerpt: as §1
# [20] = test system: Klebsiella aerogenes Ba95
# Excerpt: as §1
# [21] = test system: Escherichia coli O111 [E8]
# Excerpt: as §1
# [22] = test system: Streptocuccus faecalis I
# Excerpt: as §1
# [23] = test system: Streptocuccus pyogenes CN10
# Excerpt: as §1
# [24] = test system: Streptococcus pneumoniae CN33
# Excerpt: as §1
Structure (SMILES),MIC [1] [µg/mL],MIC [2] [µg/mL],MIC [3] [µg/mL],MIC [4] [µg/mL],MIC [5] [µg/mL],MIC [6] [µg/mL],MIC [7] [µg/mL],MIC [8] [µg/mL],MIC [9] [µg/mL],MIC [10] [µg/mL],MIC [11] [µg/mL],MIC [12] [µg/mL],MIC [13] [µg/mL],MIC [14] [µg/mL],MIC [15] [µg/mL],MIC [16] [µg/mL],MIC [17] [µg/mL],MIC [18] [µg/mL],MIC [19] [µg/mL],MIC [20] [µg/mL],also measured
"CC(=N)NCCOC(=O)/C=C\SC1=C(C(=O)O)N2C(=O)[C@H]([C@@H](C)O)[C@H]2C1 [Ex.2, (5R,6S)-3-[(S)-2-Acetimidoylaminoethyloxycarbonyl-ethenylthio]-6-[(R)-1-hydroxyethyl]-7-oxo-1-azabicyclo [3.2.0]hept-2-ene-2-carboxylic acid]",< 0.1,0.4,0.2,25,1.6,0.2,≤ 0.1,1.6,0.2,0.2,≤ 0.1,0.8,0.2,0.8,0.8,0.8,25,0.2,0.2,0.4,MIC [21]: 0.2 µg/mL; MIC [22]: 0.2 µg/mL
"CC(=N)NCCOC(=O)/C=C\SC1=C(C(=O)O)N2C(=O)[C@@H]([C@H](C)O)[C@H]2C1 [Ex.1, (5R,6R)-3-[(Z)-2-Acetimidoylaminoethyloxycarbonyl-ethenylthio]-6-[(S)-1-hydroxyethyl]-7-oxo-1-azabicyclo[3.2.0]hept-2-ene-2-carboxylic acid]",≤ 0.1,0.4,0.2,25,0.8,≤ 0.1,≤ 0.1,1.6,0.2,3.1,≤ 0.1,3.1,0.2,0.4,1.6,3.1,25,0.2,0.2,3.1,MIC [23]: ≤ 0.1 µg/mL; MIC [24]: ≤ 0.1 µg/mL; MIC [21]: 0.2 µg/mL; MIC [22]: ≤ 0.1 µg/mL

# Reference: patent EP0072121A1, “Beta-lactam antibiotics” (BEECHAM GROUP PLC, priority 1981, dated 1983)
